One data set deals with HIV. Particulars: cited from earlier work.
Data set [1] deals with RNA-dependent DNA-polymerase (viral reverse transcriptase). Particulars: in vitro incorporation into DNA growing chains, DNA chain terminated; cited from earlier work.
The nature of data set [2]: Clinical Study 1: plasma/serum AZT by radioimmunoassay, AZT alone then AZT + inosiplex. Format: in vivo, AIDS patients. To be noted: for Cmax: plasma, mean peak plasma level of AZT; for concentration: read-out: mean nadir level of AZT. The method, then: (§1) The patients were then placed on the following dosing regimen:
(§2) No other drugs that are believed to affect hepatic glucuronidation were administered.

Data set [3] in a line: Clinical Study No. 2: plasma/serum AZT by radioimmunoassay, AZT alone then AZT + p-acetamidobenzoic acid. Format: in vivo, AIDS patients. Particulars: for Cmax: human, plasma, po, 100 mg, mean peak plasma level of AZT; for concentration: read-out: mean nadir level of AZT. The method, then: as §1, §2
A short description of data set [4]: Clinical Study 3: plasma/serum AZT by radioimmunoassay, AZT alone then AZT + inosine + INPX. Format: in vivo, AIDS patients. To be noted: for Cmax: human, plasma, po, 100 mg, mean peak plasma level of AZT; for concentration: read-out: mean nadir level of AZT. The method, then: as §1, §2
In the next data set the test system is bone marrow. The data set can be described thus: Bone marrow toxicity of AZT in the study patients before the study. To be noted: 200 mg AZT orally every four hours (1,200 mg daily), and again on 800 mg daily for 2 months; 5 patients. Format: in vivo, AIDS patients.
A short description of data set [5]: Pharmacokinetics studies of AZT 100 mg every 6 hours before the study. Format: in vivo, AIDS patients. Particulars: 100 mg AZT every 6 hours (400 mg total daily dose).
The conditions of data set [6]: cited from earlier work.
For data set [7], the system named is HIV (Human Immunodeficiency Virus). Particulars: cited from earlier work.
Where [8] appears, read: with zidovudine, GB 2 181 128 A.

The Cmax is the maximum level reached in the sampled fluid or tissue.

Where two headings read alike, the source gives them in different places.

As for `NC(=O)C1CN(CC(=O)Nc2c(Cl)cccc2Cl)CCN1CCCC(c1ccc(F)cc1)c1ccc(F)cc1` (centres unmarked) [mioflazine], the effect on zidovudine entry in the data set with HIV (setting [8]) is on record as “synergistic effect”.
For the compound `OCCN(CCO)c1nc(N2CCCCC2)c2nc(N(CCO)CCO)nc(N3CCCCC3)c2n1` [dipyridamole], the effect on zidovudine result in the data set with HIV (setting [8]) is “synergistic effect”.
In the case of `Cc1cn([C@H]2C[C@H](N=[N+]=[N-])[C@@H](CO[P@](=O)(O)O[P@](=O)(O)OP(=O)(O)O)O2)c(=O)[nH]c1=O` [zidovudine triphosphate], the “effect on RNA-dependent DNA-polymerase (viral reverse transcriptase)” value in [1] is on record as “incorporated into the DNA growing chains by viral reverse transcriptase, whereby DNA chain is terminated”.
On to `COc1cc(C(=O)OCCCN2CCCN(CCCOC(=O)c3cc(OC)c(OC)c(OC)c3)CC2)cc(OC)c1OC` [dilazep], for which the effect on zidovudine entry in the data set with HIV (setting [8]) is reported as “synergistic effect”.
Consider `COc1ccc(Cc2nccc3cc(OC)c(OC)cc23)cc1OC` [papaverine], for which the effect on zidovudine entry in the data set on HIV (setting [8]) is reported as “synergistic effect”.
Regarding `Cc1ccc(C(=O)Nc2ccc(S(=O)(=O)O)c3cc(S(=O)(=O)O)cc(S(=O)(=O)O)c23)cc1NC(=O)c1cccc(NC(=O)Nc2cccc(C(=O)Nc3cc(C(=O)Nc4ccc(S(=O)(=O)O)c5cc(S(=O)(=O)O)cc(S(=O)(=O)O)c45)ccc3C)c2)c1` [suramine], the effect on zidovudine entry in the data set on HIV (setting [8]) is “synergistic effect”.
Consider `CCCN(CCC)S(=O)(=O)c1ccc(C(=O)O)cc1` [probenecid], for which the effect on zidovudine result in the data set with HIV (setting [8]) is reported as “synergistic effect”.
`c1ccc([C@H]2CN3CCSC3=N2)cc1` [levamisole]: in the data set with HIV, the effect on zidovudine entry is on record as “synergistic effect”.
Regarding `O=C(O)P(=O)(O)O` [foscarnet], in the data set with HIV (setting [8]), the effect on zidovudine entry is recorded as “synergistic effect”.
For the compound `Cc1cccc(C)c1NC(=O)CN1CCN(CCCC(c2ccc(F)cc2)c2ccc(F)cc2)CC1` [lidoflazine], the effect on zidovudine entry in the data set with HIV (setting [8]) is on record as “synergistic effect”.
Take `COc1cc(C(=O)OCCCN(C)CCN(C)CCCOC(=O)c2cc(OC)c(OC)c(OC)c2)cc(OC)c1OC` [hexobendine]: in the data set with HIV (setting [8]), the effect on zidovudine entry was “synergistic effect”.
On to alpha-interferon, for which the effect on zidovudine entry in the data set on HIV (setting [8]) is listed as “synergistic effect”.
With `Cc1cn([C@H]2C[C@H](N=[N+]=[N-])[C@@H](CO)O2)c(=O)[nH]c1=O` [AZT, 3'-azido-3'-deoxythymidine], the “AZT serum level at time 0” value in data set [2] (before the taking of AZT alone or of AZT and INPX) turned out to be 0.013 µM; in data set [4] (before the taking of AZT alone or of AZT, inosine and INPX), 0.016 µM. Moreover, the maximum concentration (Cmax) in [2] (human, po, 100 mg, 100 mg AZT with 1 gm INPX every 6 hrs, day 14, standard deviation 1.5 μM, range 0.14 to 4.4 μM) was found to be 2250 nM; in data set [2] (human, po, 100 mg, AZT alone 100 mg oral every 6 hours, day 7, standard deviation 0.75 μM, range 0.06 to 2.52 μM), 1470 nM; in data set [3] (100 mg AZT with 1 gm p-acetamidobenzoic acid every 6 hrs, day 14, standard deviation 1.8 μM, range 0.16 to 4.7 μM) it was 2450 nM; in [3] (AZT alone 100 mg oral every 6 hours, day 7, standard deviation 0.75 μM, range 0.04 to 2.46 μM) it was 1520 nM; in [4] (100 mg AZT with 1 gm inosine and 1 gm INPX every 6 hrs, day 14, standard deviation 1.3 μM, range 0.15 to 4.2 μM), 2760 nM; in data set [4] (AZT alone 100 mg oral every 6 hours, day 7, standard deviation 0.70 μM, range 0.03 to 2.16 μM), 1410 nM. Besides, the half-life in data set [2] (human, serum, po, 100 mg, read-out: Serum half-life of the elimination phase (T1/2)) is 44 min; in data set [6] (average), “about 1 hour”. In addition, the concentration in [2] (100 mg AZT with 1 gm INPX every 6 hrs, day 14, standard deviation 0.25 μM, range 0.15 to 0.84 μM) is 460 nM; in data set [2] (AZT alone 100 mg oral every 6 hours, day 7, standard deviation 0.19 μM, range 0.06 to 0.5 μM), 240 nM; in data set [3] (100 mg AZT with 1 gm p-acetamidobenzoic acid every 6 hrs, day 14, standard deviation 0.28 μM, range 0.14 to 0.88 μM) it was 490 nM; in data set [3] (AZT alone 100 mg oral every 6 hours, day 7, standard deviation 0.19 μM, range 0.04 to 0.6 μM), 250 nM; in [4] (100 mg AZT with 1 gm inosine and 1 gm INPX every 6 hrs, day 14, standard deviation 0.26 μM, range 0.11 to 0.82 μM) it was 510 nM; in data set [4] (AZT alone 100 mg oral every 6 hours, day 7, standard deviation 0.16 μM, range 0.06 to 0.8 μM) it was 210 nM. Further, the “serum level at time 0” value in data set [3] (before the taking of AZT alone or of AZT and p-acetamidobenzoic acid) is 10 nM. In addition, the bone marrow toxicity entry in the data set with bone marrow is given as “developped bone marrow toxicity”. For the same compound, in data set [5], the plasma levels result is “below the therapeutical threshold”. The metabolic inactivation result in data set [6] (liver) is “rapidly inactivated via glucuronidation in the liver”. Besides, the “inhibition of in vitro replication of some retroviruses, including HIV” value in data set [7] is on record as “inhibitor of the in vitro replication of some retroviruses, including HIV”.
In the case of “gamma-interferon: alpha-, beta, and gamma-interferons”, in the data set with HIV (setting [8]), the effect on zidovudine result is reported as “synergistic effect”.
On to `Nc1nc2c(ncn2COCCO)c(=O)[nH]1` [acyclovir], for which the effect on zidovudine entry in the data set with HIV (setting [8]) was “synergistic effect”.

(Values after US5108993A, “Pharmaceutical composition comprising zidovudine and inosiplex or components thereof for the treatment of aids-related syndromes” (priority 1988, dated 1992).)
